US9938281B2 (Merck Sharp & Dohme Corp., priority 2012, dated 2018)

Experiments:
PI3K-alpha = molecular target: T1, PI3K-alpha (Homo sapiens, UniProt P42336); assay: HTRF PI3K biochemical assay, alpha isoform; conditions: ratio PI3K-alpha IC50 value / PI3K-delta IC50 value
T1 construct: purchased Upstate; Millipore 14-602

PI3K-delta = molecular target: T2, PI3K-delta (Homo sapiens, UniProt O00329); assay: HTRF PI3K biochemical assay, delta isoform; conditions: form screened (neutral or TFA salt) given, read-out: PI3Kdelta IC50
T2 construct: purchased Upstate; Millipore 14-604
T2 sequence (O00329 whole entry, canonical isoform): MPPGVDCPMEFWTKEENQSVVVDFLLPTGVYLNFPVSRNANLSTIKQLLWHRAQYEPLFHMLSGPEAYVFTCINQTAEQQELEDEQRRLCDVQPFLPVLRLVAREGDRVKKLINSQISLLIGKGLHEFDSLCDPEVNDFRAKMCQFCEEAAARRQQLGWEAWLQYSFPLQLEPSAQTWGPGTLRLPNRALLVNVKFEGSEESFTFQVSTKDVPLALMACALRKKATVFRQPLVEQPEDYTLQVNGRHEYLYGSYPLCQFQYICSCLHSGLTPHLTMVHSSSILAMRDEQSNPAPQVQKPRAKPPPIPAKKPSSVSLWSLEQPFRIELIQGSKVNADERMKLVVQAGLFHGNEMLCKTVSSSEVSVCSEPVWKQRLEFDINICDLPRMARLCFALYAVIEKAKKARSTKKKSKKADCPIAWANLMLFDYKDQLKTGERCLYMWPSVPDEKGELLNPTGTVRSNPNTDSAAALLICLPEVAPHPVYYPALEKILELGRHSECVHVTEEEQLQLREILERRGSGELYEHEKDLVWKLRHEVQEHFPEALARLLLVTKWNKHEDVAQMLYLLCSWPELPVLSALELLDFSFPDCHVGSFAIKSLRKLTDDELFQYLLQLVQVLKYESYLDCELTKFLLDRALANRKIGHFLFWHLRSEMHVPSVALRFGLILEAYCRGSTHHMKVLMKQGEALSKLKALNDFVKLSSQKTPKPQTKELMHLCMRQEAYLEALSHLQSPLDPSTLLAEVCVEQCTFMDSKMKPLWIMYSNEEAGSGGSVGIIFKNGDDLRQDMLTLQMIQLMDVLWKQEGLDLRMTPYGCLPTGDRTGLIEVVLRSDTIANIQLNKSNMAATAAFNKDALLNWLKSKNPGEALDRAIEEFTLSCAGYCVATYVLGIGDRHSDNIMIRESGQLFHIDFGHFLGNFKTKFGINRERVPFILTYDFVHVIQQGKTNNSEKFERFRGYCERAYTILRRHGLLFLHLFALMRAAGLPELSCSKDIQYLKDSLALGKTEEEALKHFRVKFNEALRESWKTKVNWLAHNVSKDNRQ
T2 sequence (P27986 whole entry partner, canonical isoform): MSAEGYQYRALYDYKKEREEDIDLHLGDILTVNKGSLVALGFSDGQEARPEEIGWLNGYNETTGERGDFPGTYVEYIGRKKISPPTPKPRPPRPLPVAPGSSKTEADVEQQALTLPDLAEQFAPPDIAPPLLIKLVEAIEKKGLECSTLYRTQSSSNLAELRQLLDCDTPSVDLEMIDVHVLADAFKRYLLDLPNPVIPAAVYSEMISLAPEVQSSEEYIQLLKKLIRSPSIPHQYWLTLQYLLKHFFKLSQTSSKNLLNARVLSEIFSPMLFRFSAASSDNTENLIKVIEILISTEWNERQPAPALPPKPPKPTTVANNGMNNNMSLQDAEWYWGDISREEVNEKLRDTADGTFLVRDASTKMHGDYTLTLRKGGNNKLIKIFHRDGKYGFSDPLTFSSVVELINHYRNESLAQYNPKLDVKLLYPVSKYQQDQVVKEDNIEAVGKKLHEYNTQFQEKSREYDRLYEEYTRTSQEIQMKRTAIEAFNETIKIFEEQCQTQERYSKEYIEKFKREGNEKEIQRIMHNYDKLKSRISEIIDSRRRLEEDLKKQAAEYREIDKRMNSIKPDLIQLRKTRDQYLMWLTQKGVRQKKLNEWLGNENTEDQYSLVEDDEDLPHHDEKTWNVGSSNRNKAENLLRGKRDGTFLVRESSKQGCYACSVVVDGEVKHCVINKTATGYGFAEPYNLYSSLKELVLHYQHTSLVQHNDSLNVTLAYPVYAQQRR

T1 sequence (P42336 whole entry, canonical isoform): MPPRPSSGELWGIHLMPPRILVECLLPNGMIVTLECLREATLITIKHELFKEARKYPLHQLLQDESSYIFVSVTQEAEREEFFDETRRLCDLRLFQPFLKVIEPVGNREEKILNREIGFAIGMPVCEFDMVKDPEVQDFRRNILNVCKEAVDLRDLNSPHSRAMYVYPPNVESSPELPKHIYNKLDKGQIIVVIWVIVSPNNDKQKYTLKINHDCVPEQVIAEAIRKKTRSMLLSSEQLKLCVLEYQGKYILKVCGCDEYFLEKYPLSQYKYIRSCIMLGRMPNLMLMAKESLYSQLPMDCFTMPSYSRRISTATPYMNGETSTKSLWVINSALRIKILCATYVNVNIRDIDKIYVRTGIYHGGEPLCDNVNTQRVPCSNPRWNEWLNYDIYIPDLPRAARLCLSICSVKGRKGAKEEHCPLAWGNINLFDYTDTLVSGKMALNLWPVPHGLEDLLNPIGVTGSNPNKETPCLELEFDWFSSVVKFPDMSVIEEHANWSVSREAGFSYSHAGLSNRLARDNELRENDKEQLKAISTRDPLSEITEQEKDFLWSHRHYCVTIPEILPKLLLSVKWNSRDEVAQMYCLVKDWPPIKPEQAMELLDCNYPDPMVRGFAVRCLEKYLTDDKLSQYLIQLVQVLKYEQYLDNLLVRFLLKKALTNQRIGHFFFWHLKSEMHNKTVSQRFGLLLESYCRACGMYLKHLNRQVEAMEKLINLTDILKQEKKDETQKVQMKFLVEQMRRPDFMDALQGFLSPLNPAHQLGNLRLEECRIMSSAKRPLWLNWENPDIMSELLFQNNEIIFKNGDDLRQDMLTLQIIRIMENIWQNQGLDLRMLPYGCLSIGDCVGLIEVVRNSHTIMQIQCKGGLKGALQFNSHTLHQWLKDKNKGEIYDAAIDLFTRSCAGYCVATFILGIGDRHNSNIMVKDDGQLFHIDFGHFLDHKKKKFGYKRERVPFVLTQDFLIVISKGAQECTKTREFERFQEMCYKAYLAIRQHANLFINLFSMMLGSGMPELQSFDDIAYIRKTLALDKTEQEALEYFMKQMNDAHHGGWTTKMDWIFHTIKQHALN
T1 sequence (P27986 whole entry partner, canonical isoform): as the sequence (P27986 whole entry partner, canonical isoform) above

Selectivity versus PI3Kalpha (PI3K-alpha) | IC50 (PI3K-delta) [nM] | SMILES
>10 | 6 | CCn1c(-c2cnc(C)nc2)nc2c(N[C@@H]3CN(C(=O)C4CC4)C[C@H]3O)ncnc21 (racemic) [Compound 2-96, 1-(cyclopropylcarbonyl)-4-{(3R,4R) and (3S,4S)-[9-ethyl-8-(2-methylpyrimidin-5-yl)-9H-purin-6-yl]amino}pyrrolidin-3-ol]
>10 | 20 | CCn1c(C#Cc2cncnc2)nc2c(N[C@H]3CCN(C(=O)C4CC4)C3)ncnc21 [Compound 16-2, N-[(3S)-1-(cyclopropylcarbonyl)pyrrolidin-3-yl]-9-ethyl-8-(pyrimidin-5-ylethynyl)-9H-purin-6-amine]
>10 | 23 | CCn1c(Oc2ccccc2)nc2c(N[C@H]3CCN(C(=O)C4CC4)C3)ncnc21 [Compound 8-5, N-[(3S)-1-(cyclopropylcarbonyl)pyrrolidin-3-yl]-9-ethyl-8-phenoxy-9H-purin-6-amine]
>10 | 5.8 | CCn1c(-c2cnc(C)nc2)nc2c(N[C@H]3C[C@H](C(=O)NCCO)N(C(=O)C4CC4)C3)ncnc21 [Compound 15-7, (4S)-1-(cyclopropylcarbonyl)-4-{[9-ethyl-8-(2-methylpyrimidin-5-yl)-9H-purin-6-yl]amino}-N-(2-hydroxyethyl)-D-prolinamide]
>10 | 10 | CCn1c(-c2cnc(C)nc2)nc2c(NC3CN(C(=O)C4CC4)CC3(F)F)ncnc21 (single isomer, unassigned) [Compound 2-26, N-[(3S or 3R)-1-(cyclopropylcarbonyl)-4,4-difluoropyrrolidin-3-yl]-9-ethyl-8-(2-methylpyrimidin-5-yl)-9H-purin-6-amine]
>10 | 74 | CCn1c(C(F)F)nc2c(N[C@H]3CCN(C(=O)[C@H]4C[C@H](OC)C4)C3)ncnc21 [Compound 7-17, 8-(difluoromethyl)-9-ethyl-N-{(3S)-1-[(trans-3-methoxycyclobutyl)carbonyl]pyrrolidin-3-yl}-9H-purin-6-amine]
>10 | 1.7 | CCn1c(-c2cnc(C)nc2)nc2c(NC3CN(C(=O)C4CC4)CC3C)ncnc21 (single isomer, unassigned) [Compound 2-87, N-[(3S,4R or 3R,4S)-1-(cyclopropylcarbonyl)-4-methylpyrrolidin-3-yl]-9-ethyl-8-(2-methylpyrimidin-5-yl)-9H-purin-6-amine]
>10 | 12 | CCn1c(-c2cnc(C)nc2)nc2c(NC3CCCC(NC(=O)c4cocn4)C3)ncnc21 (single isomer, unassigned) [Compound 5-8, N-(1S,3S or 1R,3R)-(3-{[9-ethyl-8-(2-methylpyrimidin-5-yl)-9H-purin-6-yl]amino}cyclohexyl)-1,3-oxazole-4-carboxamide]
>10 | 35 | CCn1c(OC(C)C)nc2c(N[C@H]3CCN(C(=O)C4CC4)C3)ncnc21 [Compound 8-7, N-[(3S)-1-(cyclopropylcarbonyl)pyrrolidin-3-yl]-9-ethyl-8-(1-methylethoxy)-9H-purin-6-amine]
>10 | 13 | CCOC(=O)C(C)NC(=O)N1CC[C@H](Nc2ncnc3c2nc(-c2cnc(C)nc2)n3CC)C1 (stereo partly drawn) [Compound 12-18, ethyl N-{[(3S)-3-{[9-ethyl-8-(2-methylpyrimidin-5-yl)-9H-purin-6-yl]amino}pyrrolidin-1-yl]carbonyl}(D and L)-alaninate]
>10 | 6.9 | CCn1c(-c2cnc(C)nc2)nc2c(N[C@H]3CCN(c4ncccn4)C3)ncnc21 [Compound 4-2, 9-ethyl-8-(2-methylpyrimidin-5-yl)-N-[(3S)-1-pyrimidin-2-ylpyrrolidin-3-yl]-9H-purin-6-amine]
>10 | 63 | CCn1c(-c2cnc(C)nc2)nc2c(N[C@H]3C[C@@H](C(=O)OC)N(C(=O)C4CC4)C3)ncnc21 [Compound 2-54, methyl (4S)-1-(cyclopropylcarbonyl)-4-{[9-ethyl-8-(2-methylpyrimidin-5-yl)-9H-purin-6-yl]amino}-L-prolinate]
>10 | 11 | CCCN1CC(Nc2ncnc3c2nc(-c2cnn(CC)c2C)n3C)CC1=O (racemic) [Compound 14-1, 4(S and R)-{[8-(1-ethyl-5-methyl-1H-pyrazol-4-yl)-9-methyl-9H-purin-6-yl]amino}-1-propylpyrrolidin-2-one]
>10 | 3.3 | CCn1c(C(=O)NCC(F)(F)F)nc2c(N[C@H]3CCN(C(=O)C4CCC4)C3)ncnc21 [Compound 6-9, 6-{[(3S)-1-(cyclobutylcarbonyl)pyrrolidin-3-yl]amino}-9-ethyl-N-(2,2,2-trifluoroethyl)-9H-purine-8-carboxamide]
>10 | 1.3 | CCC(=O)N1CC[C@H](Nc2ncnc3c2nc(-c2cc(O)cc(F)c2)n3C)C1 [Compound 3-9, 3-fluoro-5-(9-methyl-6-{[(3S)-1-propanoylpyrrolidin-3-yl]amino}-9H-purin-8-yl)phenol]
>10 | 46 | CCn1c(-c2cnc(C)nc2)nc2c(N[C@H]3CCN(C(=O)CCNC)C3)ncnc21 [Compound 2-86, 9-ethyl-N-{(3S)-1-[3-(methylamino)propanoyl]pyrroli-din-3-yl}-8-(2-methylpyrimidin-5-yl)-9H-purin-6-amine]
>10 | 73 | CCn1c(C(N)=O)nc2c(N[C@H]3CCN(C(=O)C4CC4)C3)ncnc21 [Compound 6-11, 6-{[(3S)-1-(cyclopropylcarbonyl)pyrrolidin-3-yl]amino}-9-ethyl-9H-purine-8-carboxamide]
>10 | 9.7 | CCn1c(-c2cnc(C)nc2)nc2c(N[C@H]3CCN(C(=O)NCC(F)(F)F)C3)ncnc21 [Compound 12-8, (3S)-3-{[9-ethyl-8-(2-methylpyrimidin-5-yl)-9H-purin-6-yl]amino}-N-(2,2,2-trifluoroethyl)pyrrolidine-1-carboxamide]
>10 | 6.2 | CCn1c(-c2cnc(C)nc2)nc2c(N[C@H]3CCN(C(=O)OC(C)C)C3)ncnc21 [Compound 13-5, 1-methylethyl (3S)-3-{[9-ethyl-8-(2-methylpyrimidin-5-yl)-9H-purin-6-yl]amino}pyrrolidine-1-carboxylate]
>10 | 3.1 | CCn1c(-c2cnc(C)nc2)nc2c(N[C@H]3CCN(C(=O)c4ocnc4C)C3)ncnc21 [Compound 2-74, 9-ethyl-N-{(3S)-1-[(4-methyl-1,3-oxazol-5-yl)carbonyl]pyrrolidin-3-yl}-8-(2-methylpyrimidin-5-yl)-9H-purin-6-amine]
>10 | 14 | CCn1c(-c2cnc(C)nc2)nc2c(N[C@H]3C[C@H](C(=O)N(C)C)N(C(=O)C4CC4)C3)ncnc21 [Compound 15-2, (4S)-1-(cyclopropylcarbonyl)-4-{[9-ethyl-8-(2-methylpyrimidin-5-yl)-9H-purin-6-yl]amino}-N,N-dimethyl-D-prolinamide]
>10 | 1.3 | CCn1c(-c2cnc(C)nc2)nc2c(N[C@H]3CCN(C(=O)[C@@H]4C[C@@H]4C)C3)ncnc21 [Compound 2-90, 9-ethyl-N-[(3S)-1-{[(1R,2S)-2-methylcyclopropyl]carbonyl}pyrrolidin-3-yl]-8(2-methylpyrimidin-5-yl)-9H-purin-6-amine]
>10 | 4.7 | CCn1c(-c2cnc(C)nc2)nc2c(N[C@H]3C[C@H](C(=O)OC)N(C(=O)C4CC4)C3)ncnc21 [Compound 2-53, methyl (4S)-1-(cyclopropylcarbonyl)-4-{[9-ethyl-8-(2-methylpyrimidin-5-yl)-9H-purin-6-yl]amino}-D-prolinate]
>10 | 1.4 | CCn1c(-c2cnc(C)nc2)nc2c(N[C@H]3CCN(C(=O)NC(C)(C)CC(C)(C)C)C3)ncnc21 [Compound 12-25, (3S)-3-{[9-ethyl-8-(2-methylpyrimidin-5-yl)-9H-purin-6-yl]amino}-N-(1,1,3,3-tetramethylbutyl)pyrrolidine-1-carboxamide]
>10 | 11 | CCn1c(-c2cnc(C)nc2)nc2c(N[C@H]3CCN(C(=O)C4CC45CCCC5)C3)ncnc21 (single isomer, unassigned) [Compound 2-34, 9-ethyl-8-(2-methylpyrimidin-5-yl)-N-[(3S)-1-((R or S)-spiro[2.4]hept-1-ylcarbonyl)pyrrolidin-3-yl]-9H-purin-6-amine]
>10 | < 1 | CCn1c(-c2cnc(OC)c(C)c2)nc2c(N[C@H]3CCN(C(=O)C4CCOCC4)C3)ncnc21 [Compound 3A-4, 9-ethyl-8-(6-methoxy-5-methylpyridin-3-yl)-N-[(3S)-1-(tetrahydro-2H-pyran-4-ylcarbonyl)pyrrolidin-3-yl]-9H-purin-6-amine]
>10 | < 1 | CCn1ncc(-c2nc3c(N[C@H]4CCN(C(=O)C5CCOCC5)C4)ncnc3n2C)c1C [Compound 2-4, 8-(1-ethyl-5-methyl-1H-pyrazol-4-yl)-9-methyl-N-[(3S)-1-(tetrahydro-2H-pyran-4-ylcarbonyl)pyrrolidin-3-yl]-9H-purin-6-amine]
>10 | 4.6 | CCn1c(-c2cnc(C)nc2)nc2c(N[C@H]3CCN(C(=O)OC4CCS(=O)(=O)C4)C3)ncnc21 (mixture of isomers) [Compound 13-6, (S and R)-1,1-dioxidotetrahydrothiophen-3-yl (3S)-3-{[9-ethyl-8-(2-methylpyrimidin-5-yl)-9H-purin-6-yl]amino}pyrrolidine-l-carboxylate]
